According to patent US4268685A, “Salicylamide esters and related pharmaceutical composition” (Neopharmed S.p.A., priority 1979, dated 1981):

Key:
[1] = solubility of the product; type: physicochemical
[2] = tested on: prostaglandine synthetases; assay: forming of prostaglandine synthetases
[3] = hot plate test; settings: in vivo
From the text: The pharmacological tests, as carried out with the compound of example 3, show: […]

[4] = in vivo
[5] = plasma content (bioavailability) after administration; settings: in vivo
[6] = in vivo, po

COc1ccc2cc([C@H](C)C(=O)Oc3ccccc3C(N)=O)ccc2c1 [Example 1, Ester of salicylamide with 2-(6'-methoxy-2'-naphtyl)-propionic acid]
solubility in acetone ([1]; acetone): soluble | solubility in alcohol ([1]; alcohol): little soluble | solubility in benzene ([1]; benzene): little soluble | solubility in chloroform ([1]; chloroform): little soluble | solubility in pyridine ([1]; pyridine): soluble | solubility in water ([1]; water): insoluble

COc1ccc2c(c1)c(CC(=O)O)c(C)n2C(=O)c1ccc(Cl)cc1 [indomethacin]
effect on the forming of prostaglandine synthetases [2]: opposite behaviour

CC(C)Cc1ccc(C(C)C(=O)Oc2ccccc2C(N)=O)cc1 (centres unmarked) [Example 3, Ester of salicylamide with 2-(4-isobutyl-phenyl)-propionic acid]
activity at the hot plate test [3]: high activity | effect on the forming of prostaglandine synthetases [2]: enhanced | time for which plasma content remains essentially unchanged ([4]; po): more than 7 hours | time extended action [5]: time extended action

CC(C)Cc1ccc(C(C)C(=O)O)cc1 (centres unmarked) [Ibuprofen, 2-(4-isobutyl-phenyl)-propionic acid]
effect on the forming of prostaglandine synthetases [2]: opposite behaviour | Tmax [6]: 1 h

NC(=O)c1ccccc1O [salicylamide]
presence of salicylamide in the plasma [4]: not present in the plasma
